Results from patent publication US20250092437A1, “DISEASE DETECTION WITH COMBINATORIAL BIOMARKERS” (priority 2021, published 2025).
Primed or numbered codes have the meaning given here. Ends that are not written are not given here. PEG2′ = not defined here

Experiments:
[1] = system: proteolytic cleavage of Probe #102 (cathepsin L, CTSL); experiment: protease inhibitor profiling of Probe #102 cleavage in NASH and healthy plasma; format: biochemical, mice; conditions: for effect on Probe #102 signal: NASH and healthy plasma
Protocol: For this experiment, all plasma samples were prepared individually and diluted 1/10e in PBS with inhibitor added directly to the samples. Inhibitor was prepared at 15× concentration to final. Substrates were diluted in DI water at 18 uM, such that the final concentration on the plate would be 6 uM. All samples were prepared such that their last dilution on the plate would not affect the desired final concentration. 10 ul of each individual sample was pipetted into their corresponding wells, and the plate was then spun down in the centrifuge at 1500 RPM for 30 seconds to coat the bottom of each well with the sample. 5 ul of the 18 uM substrate solution was pipetted into each well being used on a 384 well plate, and then the plate was spun down in the centrifuge at 1500 rpm for 30 seconds. The plate was placed immediately in the plate reader at 37° C. for a 30-minute-long fluorescence kinetic read at 485/535 extended gain.
To assess the proteolytic cleavage pattern of Probe #102, samples were tested using a pool of broad inhibitors for serine, cysteine, threonine, MMP and aspartic protease family members (broad inhibitor) to assess general protease activity, AEBSF for serine proteases, E64 for cysteine proteases, CTSi for broad cathepsin inhibition of cathepsins L, S, K and B, or specific inhibitors for cathepsin K (L00625), for cathepsin L (SID) or cathepsin B (CA074).

[2] = system: carboxylesterase 1, phospholipase A2 and lipoprotein lipase; experiment: spiked recombinant enzymes in human plasma with resorufin oleate as substrate; format: biochemical
caspase activity = experiment: ex vivo probe cleavage in plasma of Jo2 fulminant hepatitis mice; format: biochemical; conditions: mouse plasma 3 hours after Jo2 injection
Protocol: Fulminant hepatitis is induced after injection intraperitoneal of monoclonal antibody anti-CD95 (Jo2, BD biosciences, 4 ug/animal), and mouse plasma samples were collected 3 hours after Jo2 injection.

[3] = system: host response and SARS-COV2 proteases; experiment: probe cleavage in K2 EDTA and Lithium Heparin plasma, COVID vs healthy; format: biochemical
[4] = system: cathepsin and/or MMP protease activities; experiment: probe cleavage in plasma of healthy, NASH regression and NASH progression mice; format: biochemical; conditions: K2 EDTA plasma at 20 weeks
Text: Plasma samples were collected from all animals at 20 weeks.
The probes showing the most differentiation in NASH were linked to cathepsin and/or MMP protease activities.

NASH-related proteases = experiment: ex vivo fluorescent probe cleavage (RFU/min) in K2 EDTA plasma, NASH (CDAHFD) vs healthy (CD) mice; format: biochemical; conditions: n=10 samples and pooled plasma
Protocol: All animals were used in accordance with animal care guidelines. Plasma was obtained from these blood samples by centrifugation at 3,500 RPM for 20 min at 4° C. The plasma was stored at −80° C. until it was needed for experimental purposes.
Samples were mixed with protease substrates and quenchers/reporters in 96-well plates. The 96-well plates were read on a Biotech Synergy H1, using 465,535 excitation/emission settings.
Probes measuring cathepsin activity were 3-fold higher in protease cleavage kinetics in mice with NASH compared to healthy mice.
A single plasma sample was contacted with the probes for each predetermined protease to provide a multiplex assessment of protease activity in the sample.

Granzyme B = experiment: probe cleavage in COVID positive and COVID negative swab samples; format: biochemical
[5] = K2 EDTA and Lithium Heparin plasma sets

## NCCc1ccc(S(=O)(=O)F)cc1 [AEBSF]
[1]; Probe #102, NASH plasma
  decrease of NASH signal: 65%
[1]; Probe #102, healthy plasma
  decrease of healthy signal: 60%

## CCCNC(=O)[C@H]1O[C@@H]1C(=O)N[C@H](C(=O)N1CCC[C@H]1C(=O)O)[C@@H](C)CC [CA074]
[1]
  effect on Probe #102 signal: did not significantly decrease signal

## CC(C)C[C@H](NC(=O)[C@H]1O[C@@H]1C(=O)O)C(=O)NCCCCN=C(N)N [Probe E64, E64]
[1]
  effect on Probe #102 signal: decreased NASH signal significantly

## CN1CCN(c2nc(-c3ccc(C(=O)NC4(C(=O)NCC#N)CCCCC4)cc3)cs2)CC1 [Probe L006235]
[1]
  effect on Probe #102 signal: did not significantly decrease signal

## CCCC(=O)O [butyrate]
[2]
  suitability as substrate for enzyme detection: promising for detection of broad range of enzymes

## Probe #8: Caspase centric probe (VDVAD; not fully specified; 5-FAM, CPQ2 quencher, PEG2, D-Lys-D-Lys-GC)
Caspase activity
  contrast between healthy and Jo2 samples: contrast that is specific and sensitive to the Jo2 model

## Probe #18: a Neutrophil elastase substrate (GAAPVGK; also: 5-FAM, CPQ2 quencher, PEG2-kk-GC, places not given here)
[3]; [5]
  differential cleavage between COVID and healthy samples: demonstrated contrast in both sets

## Probe #84: a Furin substrate (GRVKRGLAGK; also: 5-FAM, CPQ2 quencher, PEG2-kk-GC, places not given here)
[3]; [5]
  differential cleavage between COVID and healthy samples: demonstrated contrast in both sets

## Probe #96: probe differentiating healthy, regression and NASH plasma samples ({FAM}-GRPLALWESQG-{K(CPQ2)-PEG2′-dK-Gly-Cys}; not fully specified; printed as (FAM)-GRPLALWESQG-K(CPQ2)-PEG2-k-GC)
[4]
  differentiation among healthy, regression and NASH plasma samples: can differentiate

## Probe #102: a CTSL sensing probe; fluorescent reporter and quencher peptide probe (GKPILFFRLKG; also: FAM (position not given here), K(CPQ2) quencher (position not given here), PEG2-kk-GC (attachment not given here))
[4]
  differentiation among healthy, regression and NASH plasma samples: can differentiate
[1]; inhibitor experiments FIG. 30D-F
  protease whose activity the probe responds to: specifically responds to the activity of cathepsin L (CTSL)
NASH-related proteases
  what the measured rate of fluorescence increase is ascribed to: can be ascribed to protease activity and to NASH disease

## Probe #409: the SARS CoV2 coronavirus substrate (SARS-COV2 3C protease) (GTSAVLQSGFRKGK; also: 5-FAM, CPQ2 quencher, PEG2-kk-GC, places not given here)
[3]; K2 EDTA samples
  differential cleavage between COVID and healthy samples: modest contrast

## Probe #428: probe differentiating healthy, regression and NASH plasma samples ({FAM}-GDRRKKLTQG-{K(CPQ2)-PEG2′-dK-dK-Gly-Cys}; not fully specified; printed as (FAM)-GDRRKKLTQG-K(CPQ2)-(PEG2)-DLys-DLys-GC)
[4]
  differentiation among healthy, regression and NASH plasma samples: can differentiate

## Probe #462: a MMP8 substrate (GKKAKRNALG; also: FAM (position not given here), K(CPQ2) (position not given here), PEG2, D-Lys-D-Lys-GC (attachment not given here))
[3]; [5]
  differential cleavage between COVID and healthy samples: demonstrated contrast in both sets

## Probe #492: probe whose fluorescence increase is ascribed to protease activity and NASH disease in mice plasma ({FAM}-GQRANSIRVTWG-{K(CPQ2)-PEG2′-dK-dK-Gly-Cys}; not fully specified; printed as (FAM)-GQRANSIRVTWG-K(CPQ2)-(PEG2)-DLys-DLys-GC)
[4]
  differentiation among healthy, regression and NASH plasma samples: can differentiate
NASH-related proteases
  what the measured rate of fluorescence increase is ascribed to: can be ascribed to protease activity and to NASH disease

## Probe #520: probe differentiating healthy, regression and NASH plasma samples (GKPISLISSG; not fully specified; 5FAM, K(CPQ2), PEG2-GC)
[4]
  differentiation among healthy, regression and NASH plasma samples: can differentiate

## Probe #647: Caspase centric probe; signal measures the activity of protease Granzyme B (GAIEPDSGG; also: 5FAM (position not given here), Lys(CPQ2) (position not given here), PEG2, D-Lys-D-Lys, GC-NH2 (attachment not given here))
[4]
  differentiation among healthy, regression and NASH plasma samples: can differentiate
Granzyme B; adjusted RFU across timepoints, COVID+
  number of active samples, COVID+: 7 samples
Granzyme B; adjusted RFU across timepoints, COVID-
  number of active samples, COVID-: 1 samples
Granzyme B; inhibition experiments, healthy vs COVID samples
  protease whose activity the probe signal measures: measures the activity of protease Granzyme B
Granzyme B; swab samples in saline
  differentiation between COVID+ and COVID- samples: key differentiator
Caspase activity
  contrast between healthy and Jo2 samples: contrast that is specific and sensitive to the Jo2 model

## Resorufin oleate
[2]
  suitability as substrate for enzyme detection: promising for detection of broad range of enzymes
